Results reported in patent US6951887B2 (The Research Foundation of State University of New York, priority 1998, dated 2005).

Assays:
[1] = test system: Hep G2; test: killing of cultured cells, Hep G2; type: cell-based; design: key to cells killed by treatment: “+” indicates that the cells were killed by treatment; “−” indicates that they were not; “+/−” indicates a slow marginal response seen only in a few special cases with fibroblasts experimentally transformed by introduction of the ras oncogene; details: Hep G2; compound at two to fourfold above its threshold killing concentration
Excerpt: (§1) Table 1: Summarized are the responses of cells in culture to killing by example members of the family of blocked lipoate derivatives that are the object of this invention as well as one control compound (dihydroxyoctanoic acid). At right is indicated the specific cell line followed by the tissue of origin of the cell line. Across the top are listed the specific compounds tested. Each blocked lipoate derivative was used at two to fourfold above its threshold killing concentration. [These concentrations range form 0.15 mM (60 ug/ml or 60 mg/kg) to 2.5 mM (800 ug/ml or 800 mg/kg) (see EXAMPLE 11).] […] “+/−” indicates a slow marginal response seen only in a few special cases with fibroblasts experimentally transformed by introduction of the ras oncogene (EXAMPLE 10).
(§2) First, each cell type to be tested was plated at low densities in the wells of a standard 6×24 well tissue culture plate. (Multiple wells are seeded for each cell type.)
(§3) Second, the cells were allowed to grow to moderate densities. Transformed cells are in contact and non-transformed cells are contact-inhibited under these conditions.
(§4) Third, the lipoate derivatives to be tested were added to individual wells. In these experiments each compound was added at two to fourfold above the threshold killing concentration for cancer cells (EXAMPLE 11).
(§5) Fourth, cells were monitored over the next several days.

[2] = test system: B16 (Skin); test: killing of cultured cells, B16; type: cell-based; design: key: “+” indicates that the cells were killed by treatment; “−” indicates that they were not; “+/−” indicates a slow marginal response seen only in a few special cases with fibroblasts experimentally transformed by introduction of the ras oncogene; details: compound at two to fourfold above its threshold killing concentration
Excerpt: as §1, §2, §3, §4, §5

[3] = test system: LnCap (Prostate); test: killing of cultured cells, LnCap; type: cell-based; design: key: “+” indicates that the cells were killed by treatment; “−” indicates that they were not; “+/−” indicates a slow marginal response seen only in a few special cases with fibroblasts experimentally transformed by introduction of the ras oncogene; details: compound at two to fourfold above its threshold killing concentration
Excerpt: as §1, §2, §3, §4, §5

[4] = test system: A549 (Lung); test: killing of cultured cells, A549; type: cell-based; design: key to cells killed by treatment: “+” indicates that the cells were killed by treatment; “−” indicates that they were not; “+/−” indicates a slow marginal response seen only in a few special cases with fibroblasts experimentally transformed by introduction of the ras oncogene; details: A549, Lung; compound at two to fourfold above its threshold killing concentration
Excerpt: as §1, §2, §3, §4, §5

[5] = test system: MCF 7 (Breast); test: killing of cultured cells, MCF 7; type: cell-based; design: key: “+” indicates that the cells were killed by treatment; “−” indicates that they were not; “+/−” indicates a slow marginal response seen only in a few special cases with fibroblasts experimentally transformed by introduction of the ras oncogene; details: compound at two to fourfold above its threshold killing concentration
Excerpt: as §1, §2, §3, §4, §5

[6] = test system: SW480 (Colon); test: killing of cultured cells, SW480; type: cell-based; design: key: “+” indicates that the cells were killed by treatment; “−” indicates that they were not; “+/−” indicates a slow marginal response seen only in a few special cases with fibroblasts experimentally transformed by introduction of the ras oncogene; details: compound at two to fourfold above its threshold killing concentration
Excerpt: as §1, §2, §3, §4, §5

[7] = test system: RD (Embryo); test: killing of cultured cells, RD; type: cell-based; design: key to cells killed by treatment: “+” indicates that the cells were killed by treatment; “−” indicates that they were not; “+/−” indicates a slow marginal response seen only in a few special cases with fibroblasts experimentally transformed by introduction of the ras oncogene; details: RD, Embryo; compound at two to fourfold above its threshold killing concentration
Excerpt: as §1, §2, §3, §4, §5

[8] = test system: HeLa (Cervix); test: killing of cultured cells, HeLa; type: cell-based; design: key to cells killed by treatment: “+” indicates that the cells were killed by treatment; “−” indicates that they were not; “+/−” indicates a slow marginal response seen only in a few special cases with fibroblasts experimentally transformed by introduction of the ras oncogene; details: Cervix, compound at two to fourfold above its threshold killing concentration
Excerpt: as §1, §2, §3, §4, §5

[9] = test system: Saos 2 (Bone); test: killing of cultured cells, Saos 2; type: cell-based; design: key: “+” indicates that the cells were killed by treatment; “−” indicates that they were not; “+/−” indicates a slow marginal response seen only in a few special cases with fibroblasts experimentally transformed by introduction of the ras oncogene; details: compound at two to fourfold above its threshold killing concentration
Excerpt: as §1, §2, §3, §4, §5

[10] = test system: B-16 melanoma; test: B-16 system, subcutaneous tumors; type: in vivo, mouse; details: 100 mg/kg twice daily, started at tumors ca. 3-5 mm
Excerpt: The B-16 melanoma strain was introduced either subcutaneously or intraperitoneally into individuals of the C57/BL syngeneic mouse strain (7). When left untreated such mice develop massive tumors in the immediate area of injection as well as secondary metastases throughout the animal—including in the liver and the lungs. These malignant growths result in the early death of the animals. Moreover, the resulting malignant growths are made up of darkly pigmented malignant melanocytes—making their assessment convenient and highly reliable. We will henceforth refer to this as the “B-16 system”.
Second, a group of animals were injected at a subcutaneous site with B-16 cells. […] As this time, one group oL animals (experimentals) began a twice-daily series of injections of the bis-acetyl lipoate derivative (100 mg/kg in 100 ul of isotonic saline) and a second set (controls) of corresponding injections of the saline solvent alone. [See EXAMPLES 2, 8 and 11 for the details of bis-acetyl lipoate derivative.]
Third, in several animals subcutaneous tumors were produced as in the preceding paragraph. After the tumors had grown to visible, palpable size, these animals received both a twice daily IP (systemic) dose of 50 mg/kg of bis-benzoyl lipoate as well as a twice daily direct injection a second dose of the same volume directly into the tumor mass.

[11] = test system: NIH 3T3 ras transformed; test: killing of cultured cells, ras-transformed NIH 3T3 (T24); type: cell-based; design: key to cells killed by treatment: “+” indicates that the cells were killed by treatment; “−” indicates that they were not; “+/−” indicates a slow marginal response seen only in a few special cases with fibroblasts experimentally transformed by introduction of the ras oncogene; details: NIH 3T3 ras transformed; compound at two to fourfold above its threshold killing concentration
Excerpt: as §1, §2, §3, §4, §5
NIH-3T3 cells are relatively normal, noncancerous cells. However, if an activated allele of the ras oncogene is introduced into these cells they become highly malignant (cancerous) as assessed by several assays (REFERENCE).

[12] = test system: C57/BL mice; test: nonspecific toxicity by intraperitoneal injection; details: mouse, in vivo, ip
Protocol: (§6) (All studies described in this section were carried out by intraperitoneal (IP) injection into C57/BL mice.)

[13] = nonspecific toxicity by intraperitoneal injection; details: C57/BL, mouse, in vivo, ip
Protocol: as §6

[14] = test system: HeLa cells; test: killing of HeLa cells with or without dichloroacetate (DCA); type: cell-based; details: compound ca. twofold above threshold killing dose plus 5 mM DCA
Protocol: HeLa cells were plated at moderate densities and allowed to attach and grow for ca. 24 hours in a series of wells in a multi-well tissue culture plate. To individual wells of the first subset (control) were added bis-acetyl lipoate, mono-acetyl lipoate or bis-benzoyl lipoate—each at ca. twofold above the threshold killing dose (EXAMPLE 11). To an equivalent (experimental) subset of wells were added these same compounds at the same dose together with the simultaneous addition of DCA to 5 mM final concentration.

[15] = test system: cancer cells in culture; test: threshold killing concentration and dose response in cultured cells; type: cell-based; details: for threshold killing concentration: approximate center of a range extending two to threefold
Excerpt: First, each compound killed cancer cells in culture at or above a relatively narrow, specific concentration range, but not below. The threshold concentrations given below represent the approximate center of this range which extended roughly two to threefold. […] Below these saturation ranges, sensitive cells survived and grew. They could be removed and replated to grow, apparently indefinitely, under these conditions. […] This was a highly unusual dose/response profile. The threshold killing concentrations (ranges) varied between individual compounds. Examples of these threshold killing concentrations were as follows: bis-benzoyl lipoate (EXAMPLE 3) 60 mg/liter (60 mg/kg), monoacetyl lipoate (EXAMPLE 4) 100 mg/liter (100 mg/kg); bis-acetyl lipoate (EXAMPLE 2) 600 mg/liter (600 mg/kg).
These changes were ultimately followed by cell death if treatment was continued. However, these morphological changes were reversed, and the cells recovered, if the lipoate derivative was removed during this initial exposure. As with the dose/response profile of the preceeding paragraph, this reversible induction of morphological change followed by commitment to cell death is highly idiosyncratic. The discovery that this behavior was shown by all tested members of the class of compounds that are the object of this invention was, again, very strong evidence that these compounds are, in fact, a functionally coherent class.

With `NC(=O)CSCCC(CCCCC(=O)O)SCC(N)=O` (centres unmarked) [bis carbamoyl lipoate, 6,8-Biscarbamoylmethylmercaptooctanoic acid] the “cells killed by treatment” value [1] was “+”.
In the case of `CN1C(=O)CC(SCCC(CCCCC(=O)O)SC2CC(=O)N(C)C2=O)C1=O` (stereo not drawn) [bis methyl sucimimido lipoate, 6,8-Bis-[S-(N-methylsuccinimido)]mercaptooctanoic acid], the “cells killed by treatment” value [2] is reported as “+”, the “cells killed by treatment” value [3] is reported as “+” and the “cells killed by treatment” value [4] is reported as “+”. The “cells killed by treatment” value [1] was “+”, the “cells killed by treatment” value [5] was “+” and the “cells killed by treatment” value [6] was “+”. For the same molecule, the “cells killed by treatment” value [7] was “+”, the “cells killed by treatment” value [8] was “+” and the “cells killed by treatment” value [9] was “+”.
In the case of `CC(=O)SCCC(CCCCC(=O)O)SC(C)=O` (centres unmarked) [bis-acetyl lipoate, 6,8-bisacetylmercaptooctanoic acid], the “response of subcutaneous tumor” value [10] is reported as “palpable softening and apparently partial liquification of the tumor mass followed by a stabilization or a reduction in size”, the “cells killed by treatment” value [2] is reported as “+” and the “cells killed by treatment” value [11] is reported as “+/−”. For the same molecule, the “cells killed by treatment” value [3] was “+”, the “cells killed by treatment” value [4] was “+” and the “cells killed by treatment” value [1] was “+”. For the same molecule, the “cells killed by treatment” value [5] was “+”, the “cells killed by treatment” value [6] was “+” and the maximum well-tolerated dose [12] was “ca. 200 mg/kg”. For the same molecule, the LD50 [13] was roughly 500 mg/kg, the “speed of cell killing with DCA relative to compound alone” value [14] was “approximately twvice as rapidly” and the “cells killed by treatment” value [7] was “+”. For the same molecule, the threshold killing concentration [15] was 600 mg/L, the “cells killed by treatment” value [8] was “+” and the “cells killed by treatment” value [9] was “+”.
With `O=C([O-])CCCCC(O)CCO.[Na+]` (centres unmarked) [dihydroxy octanoic acid, Sodium 6,8-Dihydroxyoctanoate, reference compound] the “effect on cells in culture” value ([15]; tested up to 5 mM (3200 ug/ml), cell lines of Table 1) was “without detectable effect”.
With `CC(=O)SCCC(S)CCCCC(=O)O` (centres unmarked) [monoacetyl lipoate, 8-acetylmercapto-6-mercaptooctanoic acid] the “cells killed by treatment” value [2] was “+”, the “cells killed by treatment” value [11] was “+” and the “cells killed by treatment” value [3] was “+”. The “cells killed by treatment” value [4] was “+”, the “cells killed by treatment” value [1] was “+” and the “cells killed by treatment” value [5] was “+”. The “cells killed by treatment” value [6] was “+”, the “speed of cell killing with DCA relative to compound alone” value [14] was “approximately twvice as rapidly” and the “cells killed by treatment” value [7] was “+”. For the same molecule, the threshold killing concentration [15] was 100 mg/L, the “cells killed by treatment” value [8] was “+” and the “cells killed by treatment” value [9] was “+”.
